Source: patent publication US20170128366A1, “PHARMACEUTICAL FORMULATIONS OF CHELATING AGENTS AS A METAL REMOVAL TREATMENT SYSTEM” (ZONEONE PHARMA, INC., priority 2013, published 2017)

Columns and labels:
[1] = cited from earlier work
[2] = in vivo, cited from earlier work
[3] = patients who take deferasirox; cited from earlier work
[4] = Active loading of DFO or doxorubicin into liposomes without membrane modifier, effect of temperature; format: physicochemical; details: 10 min, pH 6.5
Experimental: Active loading of DFO using no ethanol (or other membrane modifier) was done using liposomes composed of either a fluid-phase lipid (egg PC) or a gel-phase lipid (HSPC), specifically, egg PC liposomes (3:2 Chol, 0.5 M ammonium sulfate, 90 nm) or HSPC liposomes (3:2 Chol, 250 mM ammonium sulfate, 90 nm) were remote loaded with DFO at a temperature range of 40-120° C. (pH 8.0) for either 10 min or 30 min. […] The target drug to lipid ratio was 170 g DFO/mol PL. After the DFO was loaded the tubes were rapidly cooled to room temperature. Unencapsulated DFO was removed by dialysis at 4° C., and drug/PL concentrations were analyzed by HPLC as described in paragraph [0108].
This experiment was done in the absence of a chemical modifier. Liposomes were composed of either a fluid-phase lipid (egg PC) or a gel-phase lipid (HSPC), specifically, egg PC liposomes (3:2 Chol, 0.5 M ammonium sulfate, 90 nm) or HSPC liposomes (3:2 Chol, 0.25 M ammonium sulfate, 90 nm) were remote loaded with DFO or doxorubicin at a temperature range between 40-120° C. for 10 min. Doxorubicin concentration in the loading solution was 5 mg/mL and a target drug to lipid ratio of 170 g DFO/mol PL. DFO was loaded at pH 8 while doxorubicin was loaded at pH 6.5. Unencapsulated drug was removed by dialysis at 4° C., and drug/PL concentrations were analyzed by HPLC as described in paragraph [0108].

active loading efficiency ([4]; HSPC liposomes (3:2 Chol, 0.25 M ammonium sulfate), 60° C. and above) [%] | active loading ([4]; HSPC liposomes, 40° C.) | active loading ([4]; egg PC liposomes (3:2 Chol, 0.5 M ammonium sulfate), 30-110° C.) | Structure (SMILES) | water solubility [1] | absorption after oral administration / from the gastro-intestinal tract [2] | clearance from the circulation [2] | solubility [1] | risk of renal and hepatic failure [3]
 |  |  | CC(=O)N(O)CCCCCNC(=O)CCC(=O)N(O)CCCCCNC(=O)CCC(=O)N(O)CCCCCN [DFO, Deferoxamine] | very water-soluble | poorly absorbed | rapidly cleared |  | 
 |  |  | O=C(O)c1ccc(-n2nc(-c3ccccc3O)nc2-c2ccccc2O)cc1 [deferasirox] | very low water-solubility | well absorbed | cleared from the circulation slowly | less than 2 mg/mL | higher risk
> 90 | loaded very poorly | high efficiency | COc1cccc2c1C(=O)c1c(O)c3c(c(O)c1C2=O)C[C@@](O)(C(=O)CO)C[C@@H]3O[C@H]1C[C@H](N)[C@H](O)[C@H](C)O1 [doxorubicin] |  |  |  |  | 
